How the values were obtained:
Assay type in all cases: in vivo
[1] = system: Spodoptera littoralis (Egyptian cotton leaf worm); assay: Example B7: Spodoptera littoralis (Egyptian cotton leaf worm), sprayed cotton leaf discs, L1 larvae; details: foliar, 72 h, application rate of 200 ppm, 3 days after infestation, L1 larvae on cotton leaf discs, read-out: control in at least one of the three categories (mortality, anti-feeding or growth inhibition)
Protocol: Example B7: Spodoptera littoralis (Egyptian Cotton Leaf Worm)
Cotton leaf discs were placed onto agar in 24-well microtiter plates and sprayed with aqueous test solutions prepared from 10′000 ppm DMSO stock solutions. After drying the leaf discs were infested with five L1 larvae. The samples were assessed for mortality, anti-feeding effect, and growth inhibition in comparison to untreated samples 3 days after infestation. Control of Spodoptera littoralis by a test sample is given when at least one of the categories mortality, anti-feedant effect, and growth inhibition is higher than the untreated sample.

[2] = system: Plutella xylostella (diamond back moth); assay: Example B5: Plutella xylostella (diamond back moth), artificial diet, 24-well, eggs; details: 192 h, application rate of 200 ppm, 8 days after infestation, read-out: control in at least one of the two categories (mortality or growth inhibition)
Protocol: Example B5: Plutella xylostella (Diamond Back Moth)
24-well microtiter plates with artificial diet were treated with aqueous test solutions prepared from 10′000 ppm DMSO stock solutions by pipetting. After drying, Plutella eggs were pipetted through a plastic stencil onto a gel blotting paper and the plate was closed with it. The samples were assessed for mortality and growth inhibition in comparison to untreated samples 8 days after infestation.

[3] = system: Diabrotica balteata (corn root worm); assay: Example B1: Diabrotica balteata (corn root worm), sprayed maize sprouts, L2 larvae; details: 96 h, application rate of 200 ppm, 4 days after infestation, L2 larvae on maize sprouts, read-out: control in at least one of the two categories (mortality or growth inhibition)
Protocol: Example B1: Diabrotica Balteata (Corn Root Worm)
Maize sprouts placed onto an agar layer in 24-well microtiter plates were treated with aqueous test solutions prepared from 10′000 ppm DMSO stock solutions by spraying. After drying, the plates were infested with L2 larvae (6 to 10 per well). The samples were assessed for mortality and growth inhibition in comparison to untreated samples 4 days after infestation.

[4] = system: Euschistus heros (neotropical brown stink bug); assay: Example B2: Euschistus heros (neotropical brown stink bug), sprayed soybean leaves, N2 nymphs; details: 120 h, application rate of 200 ppm, 5 days after infestation, N2 nymphs on soybean leaves, read-out: control in at least one of the two categories (mortality or growth inhibition)
Protocol: Example B2: Euschistus heros (Neotropical Brown Stink Bug)
Soybean leaves on agar in 24-well microtiter plates were sprayed with aqueous test solutions prepared from 10′000 ppm DMSO stock solutions. After drying the leaves were infested with N2 nymphs. The samples were assessed for mortality and growth inhibition in comparison to untreated samples 5 days after infestation.

[5] = system: Chilo suppressalis (striped rice stemborer); assay: Example B4: Chilo suppressalis (striped rice stemborer), artificial diet, L2 larvae; details: 144 h, application rate of 200 ppm, 6 days after infestation, L2 larvae on artificial diet, read-out: control in at least one of the three categories (mortality, anti-feeding or growth inhibition)
Protocol: Example B4: Chilo suppressalis (Striped rice stemborer)
24-well microtiter plates with artificial diet were treated with aqueous test solutions prepared from 10′000 ppm DMSO stock solutions by pipetting. After drying, the plates were infested with L2 larvae (6-8 per well). The samples were assessed for mortality, anti-feeding effect, and growth inhibition in comparison to untreated samples 6 days after infestation. Control of Chilo suppressalis by a test sample is given when at least one of the categories mortality, anti-feedant effect, and growth inhibition is higher than the untreated sample.

[6] = system: Spodoptera littoralis (Egyptian cotton leaf worm); assay: Example B8: Spodoptera littoralis (Egyptian cotton leaf worm), uptake by lettuce roots from agar; details: 144 h, test rate of 12.5 ppm, 6 days after infestation, compound absorbed by lettuce roots, read-out: control in at least one of the three categories (mortality, anti-feeding, or growth inhibition)
Source text: Example B8: Spodoptera littoralis (Egyptian Cotton Leaf Worm)
Test compounds were applied by pipette from 10′000 ppm DMSO stock solutions into 24-well plates and mixed with agar. Lettuce seeds were placed onto the agar and the multi well plate was closed by another plate which contained also agar. After 7 days the compound was absorbed by the roots and the lettuce grew into the lid plate. The lettuce leaves were then cut off into the lid plate. Spodoptera eggs were pipetted through a plastic stencil onto a humid gel blotting paper and the lid plate was closed with it. The samples were assessed for mortality, anti-feedant effect and growth inhibition in comparison to untreated samples 6 days after infestation.

[7] = system: Plutella xylostella (diamondback moth); assay: Example B10: Plutella xylostella (diamondback moth), 96-well artificial diet; details: 216 h, application rate of 500 ppm, 9 days after infestation, eggs/L1 larvae
Protocol: Example B10: Plutella xylostella (Diamondback Moth)
96-well microtiter plates containing artificial diet were treated with aqueous test solutions, prepared from 10′000 ppm DMSO stock solutions, by a liquid handling robot. After drying, eggs (˜30 per well) were infested onto a netted lid which was suspended above the diet. The eggs hatch and L1 larvae move down to the diet. The samples were assessed for mortality 9 days after infestation.

[8] = system: Myzus persicae (green peach aphid); assay: Example B6: Myzus persicae (green peach aphid), intrinsic activity; details: 120 h, test rate of 12 ppm, 5 days after infestation, sucrose solution, infested pea seedlings
Source text: Example B6: Myzus persicae (Green Peach Aphid): Intrinsic Activity
Test compounds prepared from 10′000 ppm DMSO stock solutions were applied by pipette into 24-well microtiter plates and mixed with sucrose solution. The plates were closed with a stretched Parafilm. A plastic stencil with 24 holes was placed onto the plate and infested pea seedlings were placed directly on the Parafilm. The infested plate was closed with a gel blotting paper and another plastic stencil and then turned upside down. The samples were assessed for mortality 5 days after infestation.

CC(NC(=O)c1cc(Cl)cc(C(F)(F)F)c1)c1nccnc1-c1ncc(OCC(F)(F)F)cn1 (stereo not drawn) [Compound P37, 3-chloro-N-[1-[3-[5-(2,2,2-trifluoroethoxy)pyrimidin-2-yl]pyrazin-2-yl]ethyl]-5-(trifluoromethyl)benzamide]
≥ 80%: percent control (mortality, anti-feeding or growth inhibition) at 200 ppm [1] | percent control (mortality or growth inhibition) at 200 ppm [2] | percent control (mortality or growth inhibition) at 200 ppm [3] | percent control (mortality or growth inhibition) at 200 ppm [4] | control at 200 ppm [5] | percent control (mortality, anti-feeding or growth inhibition) at 12.5 ppm [6]

CC(NC(=O)c1cc(OCC(F)(F)F)cc(C(F)(F)F)c1)c1nccnc1-c1ncc(OCC(F)(F)F)cn1 (stereo not drawn) [Compound P5, 3-(2,2,2-trifluoroethoxy)-N-[1-[3-[5-(2,2,2-trifluoroethoxy)pyrimidin-2-yl]pyrazin-2-yl]ethyl]-5-(trifluoromethyl)benzamide]
≥ 80%: percent control (mortality, anti-feeding or growth inhibition) at 200 ppm [1] | percent control (mortality or growth inhibition) at 200 ppm [2] | percent control (mortality or growth inhibition) at 200 ppm [4] | control at 200 ppm [5]

CC(NC(=O)c1cc(OCC(F)(F)F)cc(C(F)(F)F)c1)c1nccnc1-c1ccc(OCC(F)F)cn1 (stereo not drawn) [Compound P15, N-[1-[3-[5-(2,2-difluoroethoxy)-2-pyridyl]pyrazin-2-yl]ethyl]-3-(2,2,2-trifluoroethoxy)-5-(trifluoromethyl)benzamide]
≥ 80%: mortality at 500 ppm [7] | percent control (mortality, anti-feeding or growth inhibition) at 200 ppm [1] | percent control (mortality or growth inhibition) at 200 ppm [2] | percent control (mortality or growth inhibition) at 200 ppm [3] | control at 200 ppm [5]

CC(NC(=O)c1cc(OCC(F)(F)F)cc(C(F)(F)F)c1)c1nccnc1-c1ncc(OC(F)F)cn1 (stereo not drawn) [Compound P30, N-[1-[3-[5-(difluoromethoxy)pyrimidin-2-yl]pyrazin-2-yl]ethyl]-3-(2,2,2-trifluoroethoxy)-5-(trifluoromethyl)benzamide]
≥ 80%: mortality at 500 ppm [7] | percent control (mortality, anti-feeding or growth inhibition) at 200 ppm [1] | percent control (mortality or growth inhibition) at 200 ppm [2] | percent control (mortality or growth inhibition) at 200 ppm [3] | control at 200 ppm [5]

C[C@H](NC(=O)c1cc(C(F)(F)F)cc(C(F)(F)F)c1)c1nccnc1-c1ccc(C#N)cn1 [Compound P34, N-[(1S)-1-[3-(5-cyano-2-pyridyl)pyrazin-2-yl]ethyl]-3,5-bis(trifluoromethyl)benzamide]
≥ 80%: mortality at 500 ppm [7] | percent control (mortality, anti-feeding or growth inhibition) at 200 ppm [1] | percent control (mortality or growth inhibition) at 200 ppm [2] | percent control (mortality or growth inhibition) at 200 ppm [3] | control at 200 ppm [5] | percent control (mortality, anti-feeding or growth inhibition) at 12.5 ppm [6]

CC(NC(=O)c1cc(SC(F)(F)F)cc(C(F)(F)F)c1)c1nccnc1-c1ncc(OCC(F)F)cn1 (stereo not drawn) [Compound P29, N-[1-[3-[5-(2,2-difluoroethoxy)pyrimidin-2-yl]pyrazin-2-yl]ethyl]-3-(trifluoromethyl)-5-(trifluoromethylsulfanyl)benzamide]
≥ 80%: mortality at 500 ppm [7] | percent control (mortality, anti-feeding or growth inhibition) at 200 ppm [1] | percent control (mortality or growth inhibition) at 200 ppm [2] | percent control (mortality or growth inhibition) at 200 ppm [3] | control at 200 ppm [5]

CC(NC(=O)c1cc(OCC(F)F)cc(C(F)(F)F)c1)c1nccnc1-c1ncc(OCC(F)(F)F)cn1 (stereo not drawn) [Compound P1, 3-(2,2-difluoroethoxy)-N-[1-[3-[5-(2,2,2-trifluoroethoxy)pyrimidin-2-yl]pyrazin-2-yl]ethyl]-5-(trifluoromethyl)benzamide]
≥ 80%: percent control (mortality, anti-feeding or growth inhibition) at 200 ppm [1] | percent control (mortality or growth inhibition) at 200 ppm [2] | percent control (mortality or growth inhibition) at 200 ppm [4] | control at 200 ppm [5]

CC(NC(=O)c1cc(OC(F)F)cc(C(F)(F)F)c1)c1nccnc1-c1ccc(OCC(F)F)cn1 (stereo not drawn) [Compound P13, N-[1-[3-[5-(2,2-difluoroethoxy)-2-pyridyl]pyrazin-2-yl]ethyl]-3-(difluoromethoxy)-5-(trifluoromethyl)benzamide]
≥ 80%: mortality at 500 ppm [7] | percent control (mortality, anti-feeding or growth inhibition) at 200 ppm [1] | percent control (mortality or growth inhibition) at 200 ppm [2] | percent control (mortality or growth inhibition) at 200 ppm [3] | control at 200 ppm [5]

CC(NC(=O)c1cc(OC(F)F)cc(C(F)(F)F)c1)c1nccnc1-c1ncc(OCC(F)(F)F)cn1 (stereo not drawn) [Compound P3, 3-(difluoromethoxy)-N-[1-[3-[5-(2,2,2-trifluoroethoxy)pyrimidin-2-yl]pyrazin-2-yl]ethyl]-5-(trifluoromethyl)benzamide]
≥ 80%: percent control (mortality, anti-feeding or growth inhibition) at 200 ppm [1] | percent control (mortality or growth inhibition) at 200 ppm [2] | mortality at 12 ppm [8] | percent control (mortality or growth inhibition) at 200 ppm [3] | percent control (mortality or growth inhibition) at 200 ppm [4] | control at 200 ppm [5]

CC(NC(=O)c1cc(C(F)(F)F)cc(C(F)(F)F)c1)c1nccnc1-c1ncc(OCC(F)F)cn1 (stereo not drawn) [Compound P33, N-[1-[3-[5-(2,2-difluoroethoxy)pyrimidin-2-yl]pyrazin-2-yl]ethyl]-3,5-bis(trifluoromethyl)benzamide]
≥ 80%: percent control (mortality, anti-feeding or growth inhibition) at 200 ppm [1] | percent control (mortality or growth inhibition) at 200 ppm [2] | percent control (mortality or growth inhibition) at 200 ppm [3] | percent control (mortality or growth inhibition) at 200 ppm [4] | control at 200 ppm [5]

CC(NC(=O)c1cc(OCC(F)(F)F)cc(C(F)(F)F)c1)c1nccnc1-c1ccc(C#N)cn1 (stereo not drawn) [Compound P25, N-[1-[3-(5-cyano-2-pyridyl)pyrazin-2-yl]ethyl]-3-(2,2,2-trifluoroethoxy)-5-(trifluoromethyl)benzamide]
≥ 80%: mortality at 500 ppm [7] | percent control (mortality, anti-feeding or growth inhibition) at 200 ppm [1] | percent control (mortality or growth inhibition) at 200 ppm [2] | percent control (mortality or growth inhibition) at 200 ppm [3] | control at 200 ppm [5]

CC(NC(=O)c1cc(OCC(F)F)cc(C(F)(F)F)c1)c1nccnc1-c1ncc(OC(F)F)cn1 (stereo not drawn) [Compound P27, 3-(2,2-difluoroethoxy)-N-[1-[3-[5-(difluoromethoxy)pyrimidin-2-yl]pyrazin-2-yl]ethyl]-5-(trifluoromethyl)benzamide]
≥ 80%: mortality at 500 ppm [7] | percent control (mortality, anti-feeding or growth inhibition) at 200 ppm [1] | percent control (mortality or growth inhibition) at 200 ppm [2] | mortality at 12 ppm [8] | control at 200 ppm [5]

CC(NC(=O)c1cc(Cl)cc(C(F)(F)F)c1)c1nccnc1-c1ccc(OCC(F)(F)F)cn1 (stereo not drawn) [Compound P21, 3-chloro-N-[1-[3-[5-(2,2,2-trifluoroethoxy)-2-pyridyl]pyrazin-2-yl]ethyl]-5-(trifluoromethyl)benzamide]
≥ 80%: mortality at 500 ppm [7] | percent control (mortality, anti-feeding or growth inhibition) at 200 ppm [1] | percent control (mortality or growth inhibition) at 200 ppm [2] | percent control (mortality or growth inhibition) at 200 ppm [3] | control at 200 ppm [5]

— patent US20220169629A1, “PESTICIDALLY ACTIVE DIAZINE-AMIDE COMPOUNDS” (SYNGENTA CROP PROTECTION AG, priority 2019, published 2022)
